MIC data for 9 compounds are collected here from patent US9822114B2, “Tricyclic oxazolidinone antibiotic compounds” (Idorsia Pharmaceuticals Ltd, priority 2008, dated 2017).

The assay concerns M. catarrhalis A894. In words: Minimal inhibitory concentration (MIC), microdilution method in cation-adjusted Mueller-Hinton Broth (CLSI M7-A7). The note with it: Moraxella catarrhalis, strain A894. Type of assay: cell-based. As for the experimental part:
Minimal inhibitory concentrations (MICs; mg/1) were determined in cation-adjusted Mueller-Hinton Broth by a microdilution method following the description given in “Methods for Dilution Antimicrobial Susceptibility Tests for Bacteria that Grow Aerobically”, Approved standard, 7th ed., Clinical and Laboratory Standards Institute (CLSI) Document M7-A7, Wayne, Pa., USA, 2006.
On the technique in general: Dilution methods test growth across graded concentrations, often in twofold steps.
`O=C1CSc2ccc(N3C[C@H](CCN(CCCO)CC4Cn5c(=O)ccc6ccc(F)c4c65)OC3=O)cc2N1` (mixture of isomers) [Example 90, (RS)-9-fluoro-1-[((3-hydroxy-propyl)-{2-[(S)-2-oxo-3-(3-oxo-3,4-dihydro-2H-benzo[1,4]thiazin-6-yl)-oxazolidin-5-yl]-ethyl}-amino)-methyl]-1,2-dihydro-pyrrolo[3,2,1-ij]quinolin-4-one]: the MIC – broadly, the least concentration at which growth counts as inhibited – is at most 0.031 mg/L. In turn, `O=C1CSc2ccc(N3C[C@H](CCN(CCO)CC4Cn5c(=O)ccc6ccc(F)c4c65)OC3=O)cc2N1` (mixture of isomers) [Example 91, (RS)-9-fluoro-1-[((2-hydroxy-ethyl)-{2-[(S)-2-oxo-3-(3-oxo-3,4-dihydro-2H-benzo[1,4]thiazin-6-yl)-oxazolidin-5-yl]-ethyl}-amino)-methyl]-1,2-dihydro-pyrrolo[3,2,1-ij]quinolin-4-one] registered a minimum inhibitory concentration (MIC) of at most 0.031 mg/L. In the case of `O=C1CSc2ccc(N3C[C@@H](CCCN(CCCO)C4Cn5c(=O)ccc6ccc(F)c4c65)OC3=O)cc2N1` (mixture of isomers) [Example 92, (RS)-9-fluoro-1-((3-hydroxy-propyl)-{3-[(R)-2-oxo-3-(3-oxo-3,4-dihydro-2H-benzo[1,4]thiazin-6-yl)-oxazolidin-5-yl]-propyl}-amino)-1,2-dihydro-pyrrolo[3,2,1-ij]quinolin-4-one] it was at most 0.031 mg/L. In turn, `O=C1CSc2ccc(N3C[C@@H](CCCN(CCO)C4Cn5c(=O)ccc6ccc(F)c4c65)OC3=O)cc2N1` (mixture of isomers) [Example 93, (RS)-9-fluoro-1-((2-hydroxy-ethyl)-{3-[(R)-2-oxo-3-(3-oxo-3,4-dihydro-2H-benzo[1,4]thiazin-6-yl)-oxazolidin-5-yl]-propyl}-amino)-1,2-dihydro-pyrrolo[3,2,1-ij]quinolin-4-one] came in with an MIC of at most 0.031 mg/L.

As to `O=C1CSc2ccc(N3C[C@@H](CCCNC4Cn5c(=O)ccc6ncc(F)c4c65)OC3=O)cc2N1` (mixture of isomers) [Example 94, (RS)-3-fluoro-4-{3-[(R)-2-oxo-3-(3-oxo-3,4-dihydro-2H-benzo[1,4]thiazin-6-yl)-oxazolidin-5-yl]-propylamino}-4,5-dihydro-pyrrolo[3,2,1-de][1,5]naphthyridin-7-one], the minimum inhibitory concentration (MIC) is at most 0.031 mg/L. As to `O=C1COc2ccc(N3C[C@@H](CCCNC4Cn5c(=O)ccc6ncc(F)c4c65)OC3=O)cc2N1` (mixture of isomers) [Example 95, (RS)-3-fluoro-4-{3-[(R)-2-oxo-3-(3-oxo-3,4-dihydro-2H-benzo[1,4]oxazin-6-yl)-oxazolidin-5-yl]-propylamino}-4,5-dihydro-pyrrolo[3,2,1-de][1,5]naphthyridin-7-one], the MIC is at most 0.031 mg/L.

For `O=C1CSc2ccc(N3C[C@H](CCCNC4Cn5c(=O)ccc6ncc(F)c4c65)OC3=O)cc2N1` (mixture of isomers) [Example 96, (RS)-3-fluoro-4-{3-[(S)-2-oxo-3-(3-oxo-3,4-dihydro-2H-benzo[1,4]thiazin-6-yl)-oxazolidin-5-yl]-propylamino}-4,5-dihydro-pyrrolo[3,2,1-de][1,5]naphthyridin-7-one], the MIC was at most 0.031 mg/L. Turning to `O=C1COc2ccc(N3C[C@H](CCCNC4Cn5c(=O)ccc6ncc(F)c4c65)OC3=O)cc2N1` (mixture of isomers) [Example 97, (RS)-3-fluoro-4-{3-[(S)-2-oxo-3-(3-oxo-3,4-dihydro-2H-benzo[1,4]oxazin-6-yl)-oxazolidin-5-yl]-propylamino}-4,5-dihydro-pyrrolo[3,2,1-de][1,5]naphthyridin-7-one], the minimal inhibitory concentration (MIC) was at most 0.031 mg/L. Compound `O=C1COc2ccc(N3C[C@@H](CNCC4Cn5c(=O)ccc6ncc(F)c4c65)OC3=O)cc2N1` (mixture of isomers) [Example 98, (RS)-3-fluoro-4-({[(R)-2-oxo-3-(3-oxo-3,4-dihydro-2H-benzo[1,4]oxazin-6-yl)-oxazolidin-5-ylmethyl]-amino}-methyl)-4,5-dihydro-pyrrolo[3,2,1-de][1,5]naphthyridin-7-one] showed an MIC of 0.25 mg/L.
